Reference: patent US20230048888A1, “USE OF TRIAZOLOTRIAZINE DERIVATIVE IN TREATMENT OF DISEASES” (ZHEJIANG VIMGREEN PHARMACEUTICALS, LTD., priority 2019, published 2023)

Key:
[1] = Pharmacokinetics of Compounds 27, 16, 14 and 22 in SD rats; type: in vivo; settings: for AUC(0-t) / Cmax / half-life / clearance: Sprague-Dawley, rat, in vivo; for clearance: read-out: Cl—pred (converted)
Excerpt: WinNonlin® 6.4 was used as the calculation software for PK parameters.

[2] = biological target: T1, Human adenosine ADORA1 receptor membrane protein (Homo sapiens, UniProt P30542); experiment: Radioisotope ligand competitive binding, ADORA1 ([3H] DPCPX); settings: ADORA1 (IC50, nM, n = 3), binding test
T1 construct: purchased PerkinElmer ES-010-M400UA
T1 sequence (P30542 1-326): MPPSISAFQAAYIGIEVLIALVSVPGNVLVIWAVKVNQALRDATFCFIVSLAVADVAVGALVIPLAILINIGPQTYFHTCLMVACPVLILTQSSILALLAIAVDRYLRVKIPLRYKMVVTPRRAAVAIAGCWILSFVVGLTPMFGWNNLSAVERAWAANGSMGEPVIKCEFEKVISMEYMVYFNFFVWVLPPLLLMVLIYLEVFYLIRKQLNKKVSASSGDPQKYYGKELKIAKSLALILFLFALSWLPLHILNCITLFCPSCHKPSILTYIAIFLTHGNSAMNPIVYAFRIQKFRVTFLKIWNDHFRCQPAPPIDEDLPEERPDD
Procedure: ADORA1: 25 mM HEPES pH 7.4, 5 mM MgCl2, 1 mM CaCl2, 100 mM NaCl
(§1) 4) Preparation of compounds: the test compounds and the reference compounds were separately diluted with 100% DMSO.
(§2) 1 μL of a sample to be tested and 1 μL of a reference compound were added to a 96-well plate in sequence. […] 100 μL of cells and 100 μL of isotopes were added to all experimental wells. The 96-well plate was sealed; ADORA1, ADORA2B, and ADORA3 were incubated for 1 hour on a shaker (300 rpm) at room temperature (22° C.); and ADORA2A was incubated for 2 hours on a shaker (300 rpm) at room temperature (22° C.). At the same time, a GF/C filter plate was soaked with ADORA1, ADORA2A, ADORA2B, and ADORA3 by using 0.3% PEI for at least 30 minutes at room temperature, at 50 μL/well. After the incubation was completed, the incubated reaction system was collected onto the GF/C filter plate with a Harvester, washed 4 times and then dried for 0.5 hours in an oven at 50° C. The bottom of the dried GF/C filter plate was sealed with a film, 50 μL of scintillation solution was added to each well, which was then sealed with a Top-seal-A film. With Microbeta readings, the data was analyzed by GraphPad Prism 5.0.
(§3) % Inhibition=100×(1−(Sample_raw value−Low control_Average)/(High control_Average−Low control_Average))
(§4) The data was fitted with “log(inhibitor) vs response-variable slope” in GraphPad Prism 5.0 to obtain IC50.

[3] = biological target: T2, Human adenosine ADORA2A receptor membrane protein (Homo sapiens, UniProt P29274); experiment: Radioisotope ligand competitive binding, ADORA2A ([3H] CGS-21680); settings: ADORA2A (IC50, nM, n = 3), binding test
T2 construct: purchased PerkinElmer RBHA2AM400UA
T2 sequence (P29274 whole entry): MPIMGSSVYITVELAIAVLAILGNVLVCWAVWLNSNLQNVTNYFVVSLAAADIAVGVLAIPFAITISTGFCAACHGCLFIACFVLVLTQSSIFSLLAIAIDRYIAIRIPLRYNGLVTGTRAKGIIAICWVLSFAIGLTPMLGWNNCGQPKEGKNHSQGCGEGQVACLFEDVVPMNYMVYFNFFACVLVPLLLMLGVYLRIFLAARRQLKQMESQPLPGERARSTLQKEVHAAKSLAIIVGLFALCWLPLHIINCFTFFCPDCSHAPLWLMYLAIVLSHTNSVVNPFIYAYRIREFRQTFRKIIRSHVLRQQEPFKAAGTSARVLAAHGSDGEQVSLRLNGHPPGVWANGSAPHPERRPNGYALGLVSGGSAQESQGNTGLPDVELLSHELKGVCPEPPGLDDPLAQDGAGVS
Procedure: ADORA2A: 50 mM Tris-HCl pH 7.4, 10 mM MgCl2, 1 mM EDTA
as §1, §2, §3, §4

[4] = biological target: T3, Human adenosine ADORA3 receptor membrane protein (Homo sapiens, UniProt P0DMS8); experiment: Radioisotope ligand competitive binding, ADORA3 ([3H] HEMADO); settings: ADORA3 (IC50, nM, n = 3), binding test
T3 construct: purchased PerkinElmer ES-012-M400UA
T3 sequence (P0DMS8 1-318): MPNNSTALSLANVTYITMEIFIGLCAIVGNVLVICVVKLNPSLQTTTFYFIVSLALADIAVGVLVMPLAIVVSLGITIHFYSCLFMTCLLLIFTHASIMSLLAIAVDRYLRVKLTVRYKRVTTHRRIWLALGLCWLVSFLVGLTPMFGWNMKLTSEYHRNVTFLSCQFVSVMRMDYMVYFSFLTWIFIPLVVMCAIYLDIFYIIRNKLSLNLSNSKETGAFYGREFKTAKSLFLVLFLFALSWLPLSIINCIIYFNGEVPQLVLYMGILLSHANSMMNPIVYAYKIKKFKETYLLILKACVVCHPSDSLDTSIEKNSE
Procedure: ADORA3: 25 mM HEPES pH 7.4, 10 mM MgCl2, 1 mM CaCl2, 0.5% BSA
4) Preparation of compounds: the test compounds and the reference compounds were separately diluted with 100% DMSO. For the test compounds, the initial concentration was 10 μM, with double secondary wells; 4-fold gradient dilution was carried out at 10 points; and the final working concentration was 0.038 nM-10 μM (for the second and third detection of the test compound against an ADORA2A target, the initial concentration was 2 μM, with double secondary wells, 4-fold gradient dilution was carried out at 10 points, and the final working concentration was 0.0076 nM-2 μM). For the ADORA1, ADORA2A, ADORA2B, and ADORA3 reference compounds, the initial concentration was 1 μM, with double secondary wells, 4-fold gradient dilution was carried out at 10 points, and the final working concentration was 0.0038 nM-1 μM.
as §2, §3, §4

SMILES | Cl—F—pred ([1]; PO, dose 5 (mg/kg)) [L/h/kg] | F ([1]; PO, dose 5 (mg/kg)) [%] | AUC(0-t) ([1]; IV, dose 1 (mg/kg)) [µg·h/mL] | Cmax ([1]; IV, dose 1 (mg/kg)) [µg/mL] | half-life ([1]; IV, dose 1 (mg/kg)) [h] | clearance ([1]; IV, dose 1 (mg/kg)) [L/h/kg] | AUC(0-t) ([1]; PO, dose 5 (mg/kg)) [µg·h/mL] | Cmax ([1]; PO, dose 5 (mg/kg)) [µg/mL] | half-life ([1]; PO, dose 5 (mg/kg)) [h] | IC50 ([2]; Table 10 (IC50)) [nM] | IC50 ([2]; Table 11) [nM] | IC50 ([3]; Table 10 (IC50)) [nM] | IC50 ([3]; Table 11) [nM] | Cl—F—pred ([1]; PO, dose 3 (mg/kg)) [L/h/kg] | F ([1]; PO, dose 3 (mg/kg)) [%] | AUC(0-t) ([1]; PO, dose 3 (mg/kg)) [µg·h/mL] | Cmax ([1]; PO, dose 3 (mg/kg)) [µg/mL] | half-life ([1]; PO, dose 3 (mg/kg)) [h] | IC50 ([4]; Table 10 (IC50)) [nM] | IC50 ([4]; Table 11) [nM]
COCCNc1ccc(CCNc2nc(N)n3nc(-c4ccco4)nc3n2)cc1 [Compound 27, 2-(furan-2-yl)-N5-(4-((2-methoxyethyl)amino)phenethyl)-[1,2,4]triazolo[1,5-a][1,3,5]triazine-5,7-diamine] | 8.82 | 33.85 | 0.477 | 1.34 | 0.51 | 2.16 | 0.484 | 0.318 | 4.36 | – | – | – | – | – | – | – | – | – | – | –
Nc1nc(NCCc2ccc(NC3COC3)cc2)nc2nc(-c3ccco3)nn12 [Compound 22, 2-(furan-2-yl)-N5-(4-(oxetan-3-ylamino)phenethyl)-[1,2,4]triazolo[1,5-a][1,3,5]triazine-5,7-diamine] | – | – | 1.77 | 2.35 | 1 | 0.57 | – | – | – | 821 ± 54.2 | 564 | 0.96 ± 0.11 | 0.85 | 1.52 | 39.49 | 2.1 | 0.58 | 3.3 | 872 ± 492 | 703
Cn1nnc(-c2ccc(CCNc3nc(N)n4nc(-c5ccco5)nc4n3)cc2)n1 [Compound 40, N5-(4-(2-methyl-2H-tetrazol-5-yl)phenethyl)-2-(furan-2-yl)-[1,2,4]triazolo[1,5-a][1,3,5]triazine-5,7-diamine] | – | – | – | – | – | – | – | – | – | 552 ± 283 | 441 | 1.85 ± 0.27 | 1.64 | – | – | – | – | – | 2000 ± 1030 | 1610
